Paper PMC8851638 (ACS Omega, 2022)
≈ marks a conversion by molar mass, not a printed value. Where “and” joins values, the source holds several entries; their conditions need not be identical. Identical values can stand only once.

What was measured:
[1] = system: C. albicans200 (MDR00200); test: MIC and MFC by broth microdilution; format: cell-based, Candida albicans; settings: for MFC/MIC: C. albicans200, ratio in parentheses; for MIC: Candida albicans, read-out: MIC (mean ± SEM), C. albicans200, broth microdilution
C. albicans200 [2] = test: Single-step resistance selection; format: cell-based, Candida albicans; settings: 4 × MIC, 48 h
C. albicans100 [3] = test: Single-step resistance selection; format: cell-based, Candida albicans; settings: 4 × MIC, 48 h
[4] = system: C. albicans200 (MDR00200); test: Agar well-diffusion antimicrobial sensitivity assay; format: cell-based, Candida albicans; settings: Candida albicans, read-out: Inhibition Zone (IZ)
RBCs = test: Hemolytic assay; format: cell-based; settings: human RBCs; compounds 1.0 mg/mL; Triton X-100 0.1% v/v; 37 °C, 35 min
C. albicans100 [5] = test: Time-kill kinetic assay; format: cell-based, Candida albicans
[6] = system: C. albicans100 (MDR00100); test: MIC and MFC by broth microdilution; format: cell-based, Candida albicans; settings: for MFC/MIC: ratio in parentheses; for MIC: Candida albicans, read-out: MIC (mean ± SEM), C. albicans100
[7] = system: C. albicans100 (MDR00100); test: Agar well-diffusion antimicrobial sensitivity assay; format: cell-based, Candida albicans; settings: Candida albicans, read-out: Inhibition Zone (IZ)
C. albicans200 [8] = test: Time-kill kinetic assay; format: cell-based, Candida albicans
[9] = system: clinical pathogenic isolates; test: Single-step resistance selection, whole panel; format: cell-based; settings: 4 × MIC
K. pneumoniae [10] = test: Checkerboard combination assay with Ciprofloxacin; format: cell-based
[11] = In vitro cytotoxicity on normal cell line; format: cell-based, green monkey; settings: green monkey, Vero kidney cells
[12] = system: Vero: green monkey kidney; test: In vitro cytotoxicity on normal cell line; format: cell-based
E. coli (MDR00501) [13] = test: Agar well-diffusion antimicrobial sensitivity assay; format: cell-based; settings: Escherichia coli, read-out: Inhibition Zone (IZ)
S. aureus (MDR00231) [14] = test: MIC and MBC by broth microdilution; format: cell-based, Staphylococcus aureus
E. coli [15] = test: Checkerboard combination assay with Ciprofloxacin; format: cell-based
S. aureus [16] = test: Checkerboard combination assay with Ciprofloxacin; format: cell-based, Staphylococcus aureus
A. baumannii (MDR00521) = test: MIC and MBC by broth microdilution; format: cell-based; settings: ratio in parentheses
E. coli DNA gyrase = E. coli DNA gyrase (Escherichia coli, UniProt P0AES4+P0AES6); test: DNA gyrase inhibition; format: biochemical
B. subtilis [17] = test: Time-kill kinetic assay; format: cell-based; settings: 2 × MIC
E. coli (MDR00501) [18] = test: MIC and MBC by broth microdilution; format: cell-based
[19] = system: S. epidermidis (MDR00223); test: MIC and MBC by broth microdilution; format: cell-based, Staphylococcus epidermidis
C. albicans100 [20] = test: Checkerboard combination assay with Ketoconazole; format: cell-based, Candida albicans
S. aureus (MDR00231) [21] = test: Agar well-diffusion antimicrobial sensitivity assay; format: cell-based, Staphylococcus aureus; settings: Staphylococcus aureus, read-out: Inhibition Zone (IZ)
[22] = system: H9C2: rat heart/myocardium; test: In vitro cytotoxicity on normal cell line; format: cell-based
[23] = In vitro cytotoxicity on normal cell line; format: cell-based, rat; settings: rat, H9C2 heart/myocardium cells
S. aureus [24] = test: Time-kill kinetic assay; format: cell-based, Staphylococcus aureus
A. baumannii [25] = test: Single-step resistance selection; format: cell-based; settings: 4 × MIC, 48 h
K. pneumoniae [26] = test: Time-kill kinetic assay; format: cell-based; settings: 2 × MIC
E. coli [27] = test: Single-step resistance selection; format: cell-based; settings: 4 × MIC, 48 h
B. subtilis [28] = test: Checkerboard combination assay with Ciprofloxacin; format: cell-based
A. baumannii [29] = test: Time-kill kinetic assay; format: cell-based; settings: 2 × MIC
S. epidermidis [30] = test: Checkerboard combination assay with Ciprofloxacin; format: cell-based, Staphylococcus epidermidis
K. pneumoniae [31] = test: Single-step resistance selection; format: cell-based; settings: 4 × MIC, 48 h
[32] = In vitro cytotoxicity on normal cell line; format: cell-based, mouse; settings: mouse, BNL normal liver cells
[33] = system: BNL: mouse normal liver cells; test: In vitro cytotoxicity on normal cell line; format: cell-based
B. subtilis [34] = test: Single-step resistance selection; format: cell-based; settings: 4 × MIC, 48 h
K. pneumoniae (MDR00244) = test: MIC and MBC by broth microdilution; format: cell-based; settings: ratio in parentheses
S. epidermidis biofilm = test: Staphylococcus biofilm mass reduction; format: cell-based; settings: at their MIC
E. coli [35] = test: Time-kill kinetic assay; format: cell-based
S. aureus biofilm = test: Staphylococcus biofilm mass reduction; format: cell-based; settings: at their MIC
S. aureus [36] = test: Single-step resistance selection; format: cell-based, Staphylococcus aureus; settings: 4 × MIC, 48 h
S. epidermidis [37] = test: Time-kill kinetic assay; format: cell-based, Staphylococcus epidermidis; settings: 2 × MIC
[38] = system: all the pathogenic isolates tested; test: Time-kill kinetic assay, whole panel; format: cell-based
[39] = system: S. epidermidis (MDR00223); test: Agar well-diffusion antimicrobial sensitivity assay; format: cell-based, Staphylococcus epidermidis; settings: Staphylococcus epidermidis, read-out: Inhibition Zone (IZ)
C. albicans200 [40] = test: Checkerboard combination assay with Ketoconazole; format: cell-based, Candida albicans
B. subtilis (MDR00423) = test: MIC and MBC by broth microdilution; format: cell-based
A. baumannii [41] = test: Checkerboard combination assay with Ciprofloxacin; format: cell-based
[42] = molecular target: T1, dihydrofolate reductase (DHFR) (Homo sapiens, UniProt P00374); test: DHFR inhibition; format: biochemical
T1 sequence (P00374 1-187): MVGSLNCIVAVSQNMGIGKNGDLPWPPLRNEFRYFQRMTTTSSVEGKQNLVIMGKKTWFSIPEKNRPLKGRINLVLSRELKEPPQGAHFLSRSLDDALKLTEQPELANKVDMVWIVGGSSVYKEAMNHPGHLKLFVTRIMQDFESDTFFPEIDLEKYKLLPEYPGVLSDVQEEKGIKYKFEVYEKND

S. epidermidis [43] = test: Single-step resistance selection; format: cell-based, Staphylococcus epidermidis; settings: 4 × MIC, 48 h

E. coli DNA gyrase, sequence (P0AES4 whole entry, one chain of several): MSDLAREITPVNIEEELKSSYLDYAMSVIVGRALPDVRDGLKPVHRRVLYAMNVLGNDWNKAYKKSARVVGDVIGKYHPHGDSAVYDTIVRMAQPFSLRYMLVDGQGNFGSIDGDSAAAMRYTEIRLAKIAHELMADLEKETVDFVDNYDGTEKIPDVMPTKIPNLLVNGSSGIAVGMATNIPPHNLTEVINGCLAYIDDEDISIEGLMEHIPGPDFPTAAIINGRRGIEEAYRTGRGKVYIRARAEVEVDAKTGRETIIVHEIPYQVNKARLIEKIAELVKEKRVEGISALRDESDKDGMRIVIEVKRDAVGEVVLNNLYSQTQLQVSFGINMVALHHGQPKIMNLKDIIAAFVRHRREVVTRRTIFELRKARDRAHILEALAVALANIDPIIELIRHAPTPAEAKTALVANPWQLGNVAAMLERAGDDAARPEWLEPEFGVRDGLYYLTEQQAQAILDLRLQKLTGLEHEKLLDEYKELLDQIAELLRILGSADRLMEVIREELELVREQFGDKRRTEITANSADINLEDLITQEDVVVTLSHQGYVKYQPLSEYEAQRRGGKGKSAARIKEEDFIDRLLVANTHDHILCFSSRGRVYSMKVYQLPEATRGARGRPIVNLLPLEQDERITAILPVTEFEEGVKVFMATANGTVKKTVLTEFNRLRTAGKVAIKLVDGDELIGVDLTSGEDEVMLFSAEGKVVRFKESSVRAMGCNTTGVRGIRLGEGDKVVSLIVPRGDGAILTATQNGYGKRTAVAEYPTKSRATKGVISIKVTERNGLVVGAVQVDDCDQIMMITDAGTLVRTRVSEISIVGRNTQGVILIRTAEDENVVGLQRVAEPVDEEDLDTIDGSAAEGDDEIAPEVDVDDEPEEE

CC(=O)N1CCN(c2ccc(OCC3COC(Cn4ccnc4)(c4ccc(Cl)cc4Cl)O3)cc2)CC1 (stereo not shown) [KCA, Ketoconazole, reference compound]
MFC/MIC [1]: 0.5 | MIC [1]: 0.45 ± 0.3 µg/mL (≈ 0.847 µM) | Single-step resistance frequency (mutation frequency) (C. albicans200 [2]): 3.19 × 10^–8 | Single-step resistance frequency (mutation frequency) (C. albicans100 [3]): 3.42 × 10^–9 | zone of inhibition at 100000 µg/mL [4]: 24 ± 0.54 mm | %lysis of RBCs (RBCs): 15.38% and 15.38 ± 0.32% | time of reduction in the colony-forming units (C. albicans100 [5]): 48 h | MIC (mean ± SEM) ([6]; C. albicans100, broth microdilution): 0.49 ± 0.3 µg/mL (≈ 0.922 µM) | MFC/MIC ([6]; C. albicans100): 1 | MIC ([6]; broth microdilution): 0.49 µg/mL (≈ 0.922 µM) | zone of inhibition at 100000 µg/mL [7]: 21 ± 0.23 mm | time of reduction in the colony-forming units (C. albicans200 [8]): 48 h | mutation frequency, range over panel [9]: 3.19 × 10^–8 to 3.42 × 10^–9

CCOC(=O)c1c(N)csc1-c1cn(-c2ccccc2)nc1-c1ccc(C)cc1 [Compound 7b, Ethyl 4-Amino-2-(1-phenyl-3-(p-tolyl)-1H-pyrazol-4-yl)thiophene-3-carboxylate]
combination effect (K. pneumoniae [10]): S (S: synergism) | fractional inhibitory concentration index (FICI) (K. pneumoniae [10]): 0.5 | MFC/MIC [1]: 0.5 | MIC [1]: 0.23 ± 0.3 µg/mL (≈ 0.57 µM) | IC50 at 72 h [11]: 78.8 ± 1.1 µM | Selectivity index against DHFR ([12]; IC50 of Vero / IC50 of DHFR): 151.61 | Selectivity index against DNA gyrase ([12]; IC50 of Vero / IC50 of DNA gyrase): 6.42 | zone of inhibition at 100000 µg/mL (E. coli (MDR00501) [13]): 30 ± 0.5 mm | MBC/MIC (S. aureus (MDR00231) [14]; S. aureus, ratio in parentheses): 0.5 | MIC (S. aureus (MDR00231) [14]; Staphylococcus aureus, read-out: MIC (mean ± SEM), S. aureus, broth microdilution): 0.22 ± 0.3 µg/mL (≈ 0.545 µM) | combination effect (E. coli [15]): S (S: synergism) | fractional inhibitory concentration index (FICI) (E. coli [15]): 0.5 | combination effect (S. aureus [16]): S (S: synergism) | fractional inhibitory concentration index (FICI) (S. aureus [16]): 0.25 | MBC/MIC (A. baumannii (MDR00521)): 1 | IC50 (E. coli DNA gyrase): 12.3 ± 0.34 µM | Single-step resistance frequency (mutation frequency) (C. albicans200 [2]): 3.10 × 10^–6 | Single-step resistance frequency (mutation frequency) (C. albicans100 [3]): 2.51 × 10^–6 | time after which cells were rapidly reduced (B. subtilis [17]): 12 h | MBC/MIC (E. coli (MDR00501) [18]; E. coli, ratio in parentheses): 0.5 | MIC (E. coli (MDR00501) [18]; Escherichia coli, read-out: MIC (mean ± SEM), E. coli, broth microdilution): 0.23 ± 0.1 µg/mL (≈ 0.57 µM) | zone of inhibition at 100000 µg/mL [4]: 32 ± 0.32 mm | MBC/MIC ([19]; S. epidermidis, ratio in parentheses): 0.5 | MIC ([19]; Staphylococcus epidermidis, read-out: MIC (mean ± SEM), S. epidermidis, broth microdilution): 0.24 ± 0.2 µg/mL (≈ 0.595 µM) | %lysis of RBCs (RBCs): 3.23% and 3.23 ± 0.58% | combination effect (C. albicans100 [20]): S (S: synergism) | fractional inhibitory concentration index (FICI) (C. albicans100 [20]): 0.5 | zone of inhibition at 100000 µg/mL (S. aureus (MDR00231) [21]): 33 ± 0.32 mm | Selectivity index against DHFR ([22]; IC50 of H9C2 / IC50 of DHFR): 195.44 | Selectivity index against DNA gyrase ([22]; IC50 of H9C2 / IC50 of DNA gyrase): 8.28 | IC50 at 72 h [23]: 102 ± 1.39 µM | time of maximum reduction (S. aureus [24]; 1/2 × MIC): 24 h | time after which cells were rapidly reduced (S. aureus [24]; 2 × MIC): 8 h | Single-step resistance frequency (mutation frequency) (A. baumannii [25]): 2.11 × 10^–6 | time after which cells were rapidly reduced (K. pneumoniae [26]): 12 h | Single-step resistance frequency (mutation frequency) (E. coli [27]): 1.90 × 10^–6 | combination effect (B. subtilis [28]): S (S: synergism) | fractional inhibitory concentration index (FICI) (B. subtilis [28]): 0.5 | time after which cells were rapidly reduced (A. baumannii [29]): 8 h | combination effect (S. epidermidis [30]): S (S: synergism) | fractional inhibitory concentration index (FICI) (S. epidermidis [30]): 0.25 | Single-step resistance frequency (mutation frequency) (K. pneumoniae [31]): 1.67 × 10^–7 | IC50 at 72 h [32]: 103 ± 1.51 µM | Selectivity index against DHFR ([33]; IC50 of BNL / IC50 of DHFR): 198.65 | Selectivity index against DNA gyrase ([33]; IC50 of BNL / IC50 of DNA gyrase): 8.41 | Single-step resistance frequency (mutation frequency) (B. subtilis [34]): 1.30 × 10^–7 | MBC/MIC (K. pneumoniae (MDR00244)): 1 | reduction of biofilm formation (S. epidermidis biofilm): 58% | time of maximum reduction (E. coli [35]; 1/2 × MIC): 24 h | time after which cells were rapidly reduced (E. coli [35]; 2 × MIC): 4 h | reduction of biofilm formation (S. aureus biofilm): 67% | Single-step resistance frequency (mutation frequency) (S. aureus [36]): 1.34 × 10^–6 | time after which cells were rapidly reduced (S. epidermidis [37]): 12 h | MFC/MIC ([6]; C. albicans100): 1 | MIC ([6]; broth microdilution): 0.25 ± 0.2 µg/mL (≈ 0.62 µM) | zone of inhibition at 100000 µg/mL [7]: 31 ± 0.11 mm | reduction in the viable cell count relative to the initial inoculum [38]: ≥ 3 log10 | zone of inhibition at 100000 µg/mL [39]: 31 ± 0.16 mm | combination effect (C. albicans200 [40]): S (S: synergism) | MBC/MIC (B. subtilis (MDR00423); B. subtilis, ratio in parentheses): 1 | MIC (B. subtilis (MDR00423); Bacillus subtilis, read-out: MIC (mean ± SEM), B. subtilis, broth microdilution): 0.23 ± 0.6 µg/mL (≈ 0.57 µM) | combination effect (A. baumannii [41]): S (S: synergism) | fractional inhibitory concentration index (FICI) (A. baumannii [41]): 0.25 | IC50 [42]: 0.52 ± 0.2 µM | Single-step resistance frequency (mutation frequency) (S. epidermidis [43]): 1.62 × 10^–6 | mutation frequency, range over panel [9]: 1.34 × 10^–6 to 1.67 × 10^–7
